# Test system: C. Albicans
# Assay: Activity against fungi (C. albicans)
# Assay type: cell-based
# Settings: Table 10
# Text: Table 10 presents results of activity assays for selected compounds against fungi, as exemplified by activity against c. albicans according to assays known in the art.
row,Compound,Activity against C. Albicans [µM]
1,CNCCNC(CCN)C(=O)CC1C(C(=O)N2CCNCC2)OC(n2ccc(N)nc2=O)C(O)C1O (stereo not drawn) [compound 1],1 to 3
2,CNCC(=O)NC(CCN)C(=O)CC1C(C(=O)N2CCNCC2)OC(n2ccc(NCCCN3CCN(C)CC3)nc2=O)C(O)C1O (stereo not drawn) [compound 2],3 to 6
3,CNCC(=O)NC(CCN)C(=O)NC1C(C(=O)N2CCNCC2)OC(n2ccc(N)nc2=O)C(O)C1O (stereo not drawn) [compound 5],1 to 3
